These results are taken from patent US9050341B2, “Methods of treating drug resistant and other tumors by administering 6,7-dialkoxy quinazoline derivatives” (NATCO PHARMA LIMITED, priority 2009, dated 2015).

SMILES strings stand for the structures.

Common to all, as to assay: KinomeScan kinase profiling
Common to all, as to assay type: binding

One assay concerns the target T1, CDK3 (Homo sapiens, UniProt Q00526).
T1 construct: host or cells: T7 phage in E. coli (BL21-derived)
Put shortly: (§1)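 Kinases were expressed as T7 phage fusions in a BL21-derived E. coli host and the cleared lysates were used. Ligand beads were blocked with biotin and buffer (1% BSA, 0.05% Tween 20, 1 mM DTT). Compounds came from 40× DMSO stocks, and phage in the eluates was titred by qPCR.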

The target in a further assay is T2, CDK5 (Homo sapiens, UniProt Q00535).
T2 construct: host or cells: T7 phage in E. coli (BL21-derived)
Put shortly: as §1

In another assay the target is T3, CSK (Homo sapiens, UniProt P41240).
T3 construct: host or cells: T7 phage in E. coli (BL21-derived)
Put shortly: as §1

The next assay addresses T4, EPHA8 (Homo sapiens, UniProt P29322).
T4 construct: host or cells: E. coli host derived from BL21, T7 phage lysate
The essentials:
as §1

In the next assay the target is T5, FLT3 (N8411) (Homo sapiens, UniProt P36888, N841I).
T5 construct: host or cells: E. coli host derived from BL21, infected with T7 phage
The essentials: as §1

The next assay deals with T6, GSK3B (Homo sapiens, UniProt P49841).
T6 construct: host or cells: E. coli host derived from BL21, infected with T7 phage
Put shortly: as §1

The next assay has as its target T7, JNK1 (Homo sapiens, UniProt P45983).
T7 construct: host or cells: T7 phage in E. coli host derived from BL21
Put shortly: as §1

The target in another assay is T8, KIT (V559D) (Homo sapiens, UniProt P10721, V559D).
T8 construct: host or cells: T7 phage in E. coli host derived from BL21
The essentials:
as §1

A further assay deals with T9, MAP4K2 (Homo sapiens, UniProt Q12851).
T9 construct: host or cells: E. coli derived from BL21, infected with T7 phage
Put shortly:
as §1

The target of another assay is T10, MERTK (Homo sapiens, UniProt Q12866).
T10 construct: host or cells: E. coli derived from BL21, infected with T7 phage
The essentials:
as §1

Another assay concerns the target T11, MRCKA (Homo sapiens, UniProt Q5VT25).
T11 construct: host or cells: T7 phage in E. coli host derived from BL21
The essentials: as §1

Another assay concerns the target T12, PIM3 (Homo sapiens, UniProt Q86V86).
T12 construct: purchased Ambit Biosciences Corp (KinomeScan); host or cells: E. coli host derived from BL21, infected with T7 phage
The essentials:
as §1

A further assay has as its target T13, PKMYT1 (Homo sapiens, UniProt Q99640).
T13 construct: purchased Ambit Biosciences Corp (KinomeScan); host or cells: E. coli host derived from BL21, infected with T7 phage
The essentials: as §1

Another assay deals with T14, PRKG1 (Homo sapiens, UniProt Q13976).
T14 construct: purchased Ambit Biosciences Corp (KinomeScan); host or cells: E. coli host derived from BL21, infected with T7 phage
The essentials:
as §1

Another assay addresses T15, ROCK2 (Homo sapiens, UniProt O75116).
T15 construct: host or cells: E. coli host derived from BL21, T7 phage lysate
Put shortly: as §1

Assay [1] addresses T16, RPS6KA6 (Kin.Dom.-1-N-terminal) (Homo sapiens, UniProt Q9UK32).
T16 construct: RPS6KA6 (Kin.Dom.-1-N-terminal); host or cells: E. coli host derived from BL21, T7 phage lysate
The essentials: as §1

The target in another assay is T17, SNARK (Homo sapiens, UniProt Q9H093).
T17 construct: host or cells: E. coli host derived from the BL21 strain, T7 phage lysate
Put shortly:
as §1

A further assay concerns the target T18, STK16 (Homo sapiens, UniProt O75716).
T18 construct: host or cells: E. coli host derived from the BL21 strain, T7 phage lysate
The essentials: as §1

For the next assay, the target named is T19, TRKB (Homo sapiens, UniProt Q16620).
T19 construct: purchased Ambit Biosciences Corp (KinomeScan); host or cells: E. coli host derived from the BL21 strain (T7 phage lysate)
T19 sequence (Q16620 32-822): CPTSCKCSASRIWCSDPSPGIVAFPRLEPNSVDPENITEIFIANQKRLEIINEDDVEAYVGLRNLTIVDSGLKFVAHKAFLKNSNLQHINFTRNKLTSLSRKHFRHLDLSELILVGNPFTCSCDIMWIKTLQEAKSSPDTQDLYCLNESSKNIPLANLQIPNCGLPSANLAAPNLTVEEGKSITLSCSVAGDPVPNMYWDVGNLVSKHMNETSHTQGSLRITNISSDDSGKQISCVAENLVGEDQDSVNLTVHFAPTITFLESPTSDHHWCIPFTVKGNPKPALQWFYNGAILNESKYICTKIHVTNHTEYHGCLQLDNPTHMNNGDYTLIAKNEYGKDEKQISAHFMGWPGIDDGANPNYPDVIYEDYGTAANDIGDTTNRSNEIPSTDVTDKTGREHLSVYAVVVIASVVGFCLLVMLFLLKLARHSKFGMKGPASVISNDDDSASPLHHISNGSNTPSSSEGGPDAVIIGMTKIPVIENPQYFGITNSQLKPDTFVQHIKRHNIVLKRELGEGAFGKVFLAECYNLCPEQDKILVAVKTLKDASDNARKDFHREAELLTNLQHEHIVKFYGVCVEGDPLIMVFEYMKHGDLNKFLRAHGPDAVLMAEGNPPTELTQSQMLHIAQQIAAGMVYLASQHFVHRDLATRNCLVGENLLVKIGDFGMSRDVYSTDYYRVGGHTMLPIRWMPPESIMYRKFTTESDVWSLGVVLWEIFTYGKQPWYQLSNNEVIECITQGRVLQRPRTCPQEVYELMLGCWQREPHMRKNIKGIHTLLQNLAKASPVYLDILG
The essentials: as §1

For another assay, the target named is T20, ULK1 (Homo sapiens, UniProt O75385).
T20 construct: purchased Ambit Biosciences Corp (KinomeScan); host or cells: E. coli host derived from the BL21 strain (T7 phage lysate)
T20 sequence (O75385 whole entry): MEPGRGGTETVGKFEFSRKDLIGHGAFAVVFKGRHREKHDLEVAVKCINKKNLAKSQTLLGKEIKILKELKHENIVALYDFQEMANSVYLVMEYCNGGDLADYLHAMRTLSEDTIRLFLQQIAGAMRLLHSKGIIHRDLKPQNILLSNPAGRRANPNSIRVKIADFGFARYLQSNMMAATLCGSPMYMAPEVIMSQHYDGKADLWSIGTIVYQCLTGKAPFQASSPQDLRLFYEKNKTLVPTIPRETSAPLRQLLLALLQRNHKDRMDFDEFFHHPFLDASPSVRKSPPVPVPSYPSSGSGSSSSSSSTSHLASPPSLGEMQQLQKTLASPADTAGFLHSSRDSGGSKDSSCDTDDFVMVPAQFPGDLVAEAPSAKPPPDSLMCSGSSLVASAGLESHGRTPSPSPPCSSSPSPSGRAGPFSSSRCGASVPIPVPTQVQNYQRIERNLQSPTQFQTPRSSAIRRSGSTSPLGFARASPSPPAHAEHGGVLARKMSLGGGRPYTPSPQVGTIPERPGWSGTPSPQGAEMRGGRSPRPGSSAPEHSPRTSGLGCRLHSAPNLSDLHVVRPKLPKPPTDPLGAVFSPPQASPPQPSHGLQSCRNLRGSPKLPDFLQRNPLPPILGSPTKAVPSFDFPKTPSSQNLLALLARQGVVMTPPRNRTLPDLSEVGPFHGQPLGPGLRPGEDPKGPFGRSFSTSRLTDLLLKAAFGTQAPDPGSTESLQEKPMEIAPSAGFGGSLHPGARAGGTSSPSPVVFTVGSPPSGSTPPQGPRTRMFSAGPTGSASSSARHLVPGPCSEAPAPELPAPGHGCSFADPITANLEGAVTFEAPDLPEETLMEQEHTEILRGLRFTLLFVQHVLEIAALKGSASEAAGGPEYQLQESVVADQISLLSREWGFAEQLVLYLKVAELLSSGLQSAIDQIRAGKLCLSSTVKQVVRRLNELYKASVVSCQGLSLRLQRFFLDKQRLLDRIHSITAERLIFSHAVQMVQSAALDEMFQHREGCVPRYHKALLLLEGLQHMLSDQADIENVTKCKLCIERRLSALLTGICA
Put shortly: as §1

The target of another assay is T21, YSK1 (Homo sapiens, UniProt O00506).
T21 construct: host or cells: E. coli host derived from the BL21 strain, infected with T7 phage
T21 sequence (O00506 whole entry): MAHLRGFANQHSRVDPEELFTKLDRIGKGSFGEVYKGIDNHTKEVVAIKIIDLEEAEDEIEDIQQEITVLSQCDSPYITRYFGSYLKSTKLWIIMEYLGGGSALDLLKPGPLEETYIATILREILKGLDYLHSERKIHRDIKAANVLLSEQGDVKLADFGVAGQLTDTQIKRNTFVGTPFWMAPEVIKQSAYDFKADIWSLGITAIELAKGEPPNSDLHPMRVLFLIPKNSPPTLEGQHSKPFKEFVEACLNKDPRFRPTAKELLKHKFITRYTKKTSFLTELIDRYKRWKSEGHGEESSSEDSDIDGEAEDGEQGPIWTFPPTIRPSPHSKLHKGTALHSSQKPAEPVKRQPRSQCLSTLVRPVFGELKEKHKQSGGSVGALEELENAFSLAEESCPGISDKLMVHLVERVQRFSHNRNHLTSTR
Put shortly: as §1

In another assay the target is T22, ZAK (Homo sapiens, UniProt Q9NYL2).
T22 construct: host or cells: E. coli host derived from the BL21 strain, infected with T7 phage
Put shortly: as §1

The target of the next assay is T23, ZAP70 (Homo sapiens, UniProt P43403).
T23 construct: host or cells: E. coli host derived from the BL21 strain, infected with T7 phage
T23 sequence (P43403 whole entry): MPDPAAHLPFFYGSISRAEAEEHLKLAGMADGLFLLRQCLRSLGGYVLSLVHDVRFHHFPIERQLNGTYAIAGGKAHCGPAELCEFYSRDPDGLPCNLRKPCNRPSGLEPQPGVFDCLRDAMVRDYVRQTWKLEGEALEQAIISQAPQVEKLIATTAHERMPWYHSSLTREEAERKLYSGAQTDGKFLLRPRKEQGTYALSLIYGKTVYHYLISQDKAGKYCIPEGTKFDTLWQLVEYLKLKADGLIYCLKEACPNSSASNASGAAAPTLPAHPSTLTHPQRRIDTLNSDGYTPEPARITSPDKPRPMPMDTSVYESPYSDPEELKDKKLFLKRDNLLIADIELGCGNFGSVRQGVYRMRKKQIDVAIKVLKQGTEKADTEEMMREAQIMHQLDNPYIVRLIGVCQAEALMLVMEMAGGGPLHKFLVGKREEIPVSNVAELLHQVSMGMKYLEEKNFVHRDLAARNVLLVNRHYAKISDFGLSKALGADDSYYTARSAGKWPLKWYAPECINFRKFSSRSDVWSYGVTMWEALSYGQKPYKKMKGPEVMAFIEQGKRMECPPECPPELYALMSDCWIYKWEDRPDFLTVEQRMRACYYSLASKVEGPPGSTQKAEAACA
Put shortly: as §1

T11 sequence (Q5VT25 whole entry): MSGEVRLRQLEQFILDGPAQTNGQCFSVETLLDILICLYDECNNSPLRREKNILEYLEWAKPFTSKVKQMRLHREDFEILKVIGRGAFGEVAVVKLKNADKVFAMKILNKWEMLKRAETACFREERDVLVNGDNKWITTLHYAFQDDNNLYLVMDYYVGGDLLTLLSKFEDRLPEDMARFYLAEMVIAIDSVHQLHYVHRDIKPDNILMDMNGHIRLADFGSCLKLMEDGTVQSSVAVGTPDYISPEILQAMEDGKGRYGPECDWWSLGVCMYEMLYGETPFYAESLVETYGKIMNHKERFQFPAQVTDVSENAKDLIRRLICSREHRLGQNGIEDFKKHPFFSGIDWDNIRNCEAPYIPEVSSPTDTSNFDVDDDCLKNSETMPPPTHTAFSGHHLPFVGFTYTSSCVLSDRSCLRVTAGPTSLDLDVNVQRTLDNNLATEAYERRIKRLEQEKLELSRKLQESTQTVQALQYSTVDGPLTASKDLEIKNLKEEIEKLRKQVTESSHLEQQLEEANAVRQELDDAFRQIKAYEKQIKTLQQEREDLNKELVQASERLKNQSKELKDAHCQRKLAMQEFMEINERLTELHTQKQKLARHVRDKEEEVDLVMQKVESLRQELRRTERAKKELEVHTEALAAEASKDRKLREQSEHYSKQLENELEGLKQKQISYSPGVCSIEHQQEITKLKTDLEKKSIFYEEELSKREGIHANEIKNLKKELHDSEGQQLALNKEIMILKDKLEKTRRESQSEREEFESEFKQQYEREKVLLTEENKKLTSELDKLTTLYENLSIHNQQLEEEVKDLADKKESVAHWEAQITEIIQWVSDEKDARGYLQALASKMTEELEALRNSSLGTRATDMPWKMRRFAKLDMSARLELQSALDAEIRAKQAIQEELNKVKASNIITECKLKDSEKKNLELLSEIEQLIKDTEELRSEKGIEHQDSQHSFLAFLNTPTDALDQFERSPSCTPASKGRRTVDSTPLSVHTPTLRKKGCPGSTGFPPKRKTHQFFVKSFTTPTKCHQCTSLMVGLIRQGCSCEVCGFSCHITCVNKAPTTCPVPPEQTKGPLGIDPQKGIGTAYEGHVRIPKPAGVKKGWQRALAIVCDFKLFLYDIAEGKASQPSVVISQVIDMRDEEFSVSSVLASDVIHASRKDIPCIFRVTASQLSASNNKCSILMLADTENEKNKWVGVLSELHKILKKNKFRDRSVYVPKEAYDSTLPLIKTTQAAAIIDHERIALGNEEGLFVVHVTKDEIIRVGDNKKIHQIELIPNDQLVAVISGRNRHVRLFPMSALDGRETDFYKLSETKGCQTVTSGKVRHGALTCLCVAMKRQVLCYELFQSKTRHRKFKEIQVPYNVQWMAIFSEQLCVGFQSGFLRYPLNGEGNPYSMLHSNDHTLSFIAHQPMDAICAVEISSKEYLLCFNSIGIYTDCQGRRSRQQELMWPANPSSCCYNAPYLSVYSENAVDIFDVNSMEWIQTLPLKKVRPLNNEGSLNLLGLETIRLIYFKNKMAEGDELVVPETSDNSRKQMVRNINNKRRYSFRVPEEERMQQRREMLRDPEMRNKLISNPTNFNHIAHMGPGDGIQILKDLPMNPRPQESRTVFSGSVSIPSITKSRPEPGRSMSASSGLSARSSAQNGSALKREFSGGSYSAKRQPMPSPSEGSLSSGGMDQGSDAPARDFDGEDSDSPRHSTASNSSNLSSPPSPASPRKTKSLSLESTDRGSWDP
T16 sequence (Q9UK32 73-330 limits assumed): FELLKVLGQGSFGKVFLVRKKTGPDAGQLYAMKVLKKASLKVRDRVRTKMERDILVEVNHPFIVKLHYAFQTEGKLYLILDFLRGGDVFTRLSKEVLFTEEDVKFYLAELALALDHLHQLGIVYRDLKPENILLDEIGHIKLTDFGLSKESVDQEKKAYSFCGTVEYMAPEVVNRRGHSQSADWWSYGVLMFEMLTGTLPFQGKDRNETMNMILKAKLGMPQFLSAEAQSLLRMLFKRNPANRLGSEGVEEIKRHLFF

As for `C#Cc1cccc(Nc2ncnc3cc(OC)c(OCCCN4CCOCC4)cc23)c1` [NRC-2694, N-(3-ethylnylphenyl)-7-methoxy-6-[3-(4-morpholinyl)propoxy]-4-quinazolinamine], the “% Ctrl @ 10000 nM” value amounted to 91 % Ctrl at CDK3; 100 % Ctrl on CDK5; 53 % Ctrl on CSK; 66 % Ctrl at EPHA8; 16 % Ctrl at FLT3 (N8411); 100 % Ctrl at GSK3B. Besides, the “% Ctrl @ 10000 nM” value on JNK1 was 99 % Ctrl; on KIT (V559D) it was 17 % Ctrl; on MAP4K2, 48 % Ctrl; at MERTK, 48 % Ctrl; on MRCKA, 81 % Ctrl; at PIM3, 23 % Ctrl. The “% Ctrl @ 10000 nM” value is reported as 74 % Ctrl at PKMYT1; 75 % Ctrl on PRKG1; 38 % Ctrl on ROCK2; 94 % Ctrl in [1]; 19 % Ctrl on SNARK; 100 % Ctrl at STK16. Moreover, the “% Ctrl @ 10000 nM” value at TRKB was found to be 73 % Ctrl; on ULK1 it was 100 % Ctrl; on YSK1 it was 69 % Ctrl; at ZAK it was 74 % Ctrl; at ZAP70 it was 100 % Ctrl.
